Consider 18 compounds from patent US20240208909A1, “SUBSTITUTED QUINOLINE DERIVATIVES HAVING SOS1 INHIBITION ACTIVITIES AND USES THEREOF” (Accutar Biotechnology Inc., priority 2022, published 2024).

Molecules are shown by their SMILES.

For one assay, the system named is K562 cells. Nature of the assay: Cell growth inhibition of K562 cells (CellTiter-Glo). Type of assay: cell-based. The note with it: Homo sapiens, 120 h, 5 days. The protocol: Example 24: Cell Growth Inhibition of K562 Cells
K562 cells were obtained from American Type Culture Collection (ATCC). For cell growth assay, K562 cells were seeded in 96-well plates at 1000 cells/well in 90 μl of RPM11640 growth medium containing 10% FBS and 1% Penicillin Streptomycin, and then incubated at 37° C. for 1 hour. The test compound was administered to the cells by using 1000× compound stock solution prepared in DMSO at various concentrations. 1000× compound stock solution was first diluted in culturing medium to 10×, then 10 uL compound medium was added to each well in the cell plates. After administration of the compound, the cells were then incubated at 37° C. for 5 days. Upon completion, the plates were equilibrated at room temperature for approximately 10 minutes. 100 ul of CellTiter-Glo® Reagent (Promega) was added to each well. The plates were then incubated at room temperature for 10 minutes and luminescence was recorded by EnSpire plate reader (PerkinElmer).

Assay [1] deals with Phospho-ERK1/2 in DLD1 cells. In words: Phospho-ERK1/2 expression inhibition in DLD1 cells. In kind it is cell-based. The note with it: Homo sapiens, DLD-1, 4 hours, read-out: DLD1 pERK IC50. On the procedure:
Example 23: Phospho-ERK1/2 Expression Inhibition in DLD1 Cells
DLD1 cells were obtained from American Type Culture Collection (ATCC). DLD1 cells were plated in 96-well plates (VWR #10062-900, or Corning #3904) in 90 uL culture medium at a density of 15,000 cells/well in the RPM11640 growth medium containing 10% FBS and 1% Penicillin Streptomycin, and then incubated at 37° C. overnight. The following day, the test compound was administered to the cells by using 1000×x compound stock solution prepared in DMSO at various concentrations. 1000× compound stock solution was first diluted in culturing medium to 10×, then 10 uL compound medium was added to each well in the cell plates. After administration of the compound, the cells were then incubated at 37° C. for 4 hours. Upon completion, the cells were washed with PBS briefly. 150 uL/well of 4% formaldehyde was added and the plates were incubated at room temperature for 20 mins. The cells were washed with PBS briefly, and permeabilized with 150 uL/well of ice cold 100% methanol for 10 mins. The cells were washed with PBS briefly and blocked with 100 uL/well LI-COR blocking buffer for 1 hr at room temperature with gentle shaking. The cells were incubated overnight at 4° C. with 50 uL primary antibody rabbit anti-Phospho-ERK1/2 (1: 500, Cell Signaling, #4370) diluted in Intercept Blocking Buffer (LI-COR, #927-60001) containing 0.1% Tween 20. The next day, the cells were washed with 200 uL PBS containing 0.1% Tween 20, 5×5 mins at room temperature with gentle shaking, and incubated with 50 uL secondary antibody, IRDye® 800CW Goat anti-Rabbit IgG (LI-COR, #926-32211), 1:1000, in LI-COR blocking buffer with 0.2% Tween 20 for 1 hr at room temperature with gentle shaking. The cells were washed with 200 uL PBS containing 0.1% Tween 20, 5×5 mins at room temperature with gentle shaking. The cells were washed with PBS for 5 mins. 100 uL fresh PBS was added to each well and the plates were imaged on a LI-COR Odyssey CLX plate reader.

For the next assay, the target named is SOS1/KRAS-G12D (Homo sapiens (Human), UniProt Q07889). In words: SOS1/KRAS-G12D binding inhibition assay (AlphaScreen). To be noted: GST-SOS1 and 6*His KRAS-G12D, read-out: KrasG12D/SOS1 binding IC50. The protocol:
Example 22: SOS1/KRAS-G12D Binding Inhibition Assay
SOS1 binding affinity of candidate compounds was measured by monitoring the interaction of SOS1 with KRAS-G12D in the presence of the test compound. Briefly, 5 nM GST tagged SOS1 proteins (final concentration) were pre-incubated with 50 nM 6*His tagged KRAS-G12D proteins (final concentration) in an assay buffer containing 10 mM HEPES, pH 7.4, 150 mM NaCl, 1 mM DTT, 5 mM MgCl2, 0.1% Tween-20, and 0.05% BSA for 30 minutes. The test compounds in 2% DMSO (final concentration) at various concentrations were then added to the reaction mixture and incubated for another 30 minutes at 4° C. 5 ug/ml GSH AlphaScreen donor beads (PerkinElmer, 6765300) and 5 ug/ml nickel chelate (Ni-NTA) AlphaScreen acceptor beads (PerkinElmer, 6760619C) (final concentrations) were then added to the mixture. After an incubation of 2 hours at 4° C., the fluorescent signals were obtained on the EnVision® 2105 Multilabel Plate Reader (PerkinElmer).
Raw AlphaScreen data were converted to a percentage of inhibition (relative to DMSO) using the following equations: • a) For a given test compound concentration X:
Signal (X)=Signal (SOS1 & KRAS-G12D & compound)-Signal (buffer & KRAS-G12D & compound)
Percentage of inhibition at concentration X=[1−Signal (X)/Signal (DMSO)]*100% b)
The IC50 values were determined by nonlinear regression of plots of [inhibitor] vs. percentage of inhibition with variable slope, analyzed using GraphPad Prism 9.

Chain of SOS1/KRAS-G12D (Q07889 564-1049 limits assumed): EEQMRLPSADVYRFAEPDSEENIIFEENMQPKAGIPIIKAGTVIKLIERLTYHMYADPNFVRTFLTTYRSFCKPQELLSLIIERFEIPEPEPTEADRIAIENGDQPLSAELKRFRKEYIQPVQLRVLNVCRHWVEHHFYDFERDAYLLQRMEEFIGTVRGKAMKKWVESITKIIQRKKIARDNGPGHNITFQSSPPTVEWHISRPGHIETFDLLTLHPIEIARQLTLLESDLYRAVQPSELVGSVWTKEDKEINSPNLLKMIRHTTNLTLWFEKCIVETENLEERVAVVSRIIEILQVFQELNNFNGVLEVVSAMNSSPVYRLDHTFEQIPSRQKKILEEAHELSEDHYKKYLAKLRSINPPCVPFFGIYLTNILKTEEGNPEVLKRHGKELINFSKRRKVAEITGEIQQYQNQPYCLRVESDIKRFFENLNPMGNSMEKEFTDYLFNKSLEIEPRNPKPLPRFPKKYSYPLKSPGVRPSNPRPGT

Consider `C[C@@H](Nc1ccnc2c(F)cc(N3CC[C@@H](N)C3)cc12)c1cccc(C(F)F)c1F` [Compound 30, 6-((R)-3-aminopyrrolidin-1-yl)-N-((R)-1-(3-(difluoromethyl)-2-fluorophenyl)ethyl)-8-fluoroquinolin-4-amine], for which the GI50 in the assay on K562 cells is 100 to 500 nM. Besides, the results for the IC50 (in assay [1]; on SOS1/KRAS-G12D) were above 500 nM and 10 to 100 nM, respectively.
The like results for `C[C@@H](Nc1ccnc2ccc(N3CC[C@@H](N(C)C)C3)cc12)c1cccc(C(F)F)c1F` [Compound 31, N-((R)-1-(3-(difluoromethyl)-2-fluorophenyl)ethyl)-6-((R)-3-(dimethylamino)pyrrolidin-1-yl)quinolin-4-amine] were, in that order, at most 100 nM, above 500 nM and at most 10 nM.
The like results for `Cc1c([C@@H](C)Nc2ccnc3ccc(N4CCC(N(C)C)CC4)cc23)cccc1C(F)(F)F` [Compound 32, (R)-6-(4-(dimethylamino)piperidin-1-yl)-N-(1-(2-methyl-3-(trifluoromethyl)phenyl)ethyl)quinolin-4-amine] were, in that order, 100 to 500 nM, above 500 nM and 10 to 100 nM.
`CC(=O)N1CCN(c2ccc3nccc(N[C@H](C)c4cccc(C(F)(F)F)c4C)c3c2)C[C@@H]1C` [Compound 33, 1-((S)-2-methyl-4-(4-(((R)-1-(2-methyl-3-(trifluoromethyl)phenyl)ethyl)amino)quinolin-6-yl)piperazin-1-yl)ethan-1-one] registered a GI50 in the assay on K562 cells of 100 to 500 nM. For the same compound, the IC50 in assay [1] was above 500 nM; on SOS1/KRAS-G12D, above 100 nM.
The like results for `Cc1c([C@@H](C)Nc2ccnc3ccc(N4CCN(c5nccs5)CC4)cc23)cccc1C(F)(F)F` [Compound 34, (R)-N-(1-(2-methyl-3-(trifluoromethyl)phenyl)ethyl)-6-(4-(thiazol-2-yl)piperazin-1-yl)quinolin-4-amine] were, in that order, 100 to 500 nM, above 500 nM and above 100 nM.
In the same order, the values of `Cc1c([C@@H](C)Nc2ccnc3ccc(N4CCNC(C)(C)C4)cc23)cccc1C(F)(F)F` [Compound 35] are 100 to 500 nM, above 500 nM and 10 to 100 nM.
The like results for `CC(=O)N1CCN(c2ccc3nccc(N[C@H](C)c4cccc(C(F)(F)F)c4C)c3c2)CC1(C)C` [Compound 36, (R)-1-(2,2-dimethyl-4-(4-((1-(2-methyl-3-(trifluoromethyl)phenyl)ethyl)amino)quinolin-6-yl)piperazin-1-yl)ethan-1-one] were, in that order, 100 to 500 nM, above 500 nM and 10 to 100 nM.
`CC(=O)N[C@@H]1CCN(c2ccc3nccc(N[C@H](C)c4cccc(C(F)(F)F)c4C)c3c2)C1` [Compound 38, N-((R)-1-(4-(((R)-1-(2-methyl-3-(trifluoromethyl)phenyl)ethyl)amino)quinolin-6-yl)pyrrolidin-3-yl)acetamide] yielded a GI50 with K562 cells above 500 nM. Also, the IC50 in assay [1] was above 500 nM; at SOS1/KRAS-G12D, above 100 nM.
In the assay with K562 cells, `CC(=O)N[C@H]1CCN(c2ccc3nccc(N[C@H](C)c4cccc(C(F)(F)F)c4C)c3c2)C1` [Compound 39, N-((S)-1-(4-(((R)-1-(2-methyl-3-(trifluoromethyl)phenyl)ethyl)amino)quinolin-6-yl)pyrrolidin-3-yl)acetamide] registered a concentration for 50% growth inhibition (GI50) above 500 nM. In addition, the figures for the IC50 (in assay [1]; at SOS1/KRAS-G12D) were above 500 nM and above 100 nM, respectively.
Turning to `CC(=O)N1CCC(O)(c2ccc3nccc(N[C@H](C)c4cccc(C(F)F)c4F)c3c2)CC1` [Compound 40, (R)-1-(4-(4-((1-(3-(difluoromethyl)-2-fluorophenyl)ethyl)amino)quinolin-6-yl)-4-hydroxypiperidin-1-yl)ethan-1-one], in the assay with K562 cells, the GI50 is at most 100 nM. In addition, the values for the IC50 (in assay [1]; on SOS1/KRAS-G12D) were 150 to 500 nM and at most 10 nM, respectively.
The like results for `CC(=O)N1CCC(F)(c2ccc3nccc(N[C@H](C)c4cccc(C(F)F)c4F)c3c2)CC1` [Compound 41, (R)-1-(4-(4-((1-(3-(difluoromethyl)-2-fluorophenyl)ethyl)amino)quinolin-6-yl)-4-fluoropiperidin-1-yl)ethan-1-one] were, in that order, at most 100 nM, 150 to 500 nM and at most 10 nM.
Take `C[C@@H](Nc1ccnc2ccc(N3CC[C@@H](O)C3)cc12)c1cccc(C(F)F)c1F` [Compound 42, (R)-1-(4-(((R)-1-(3-(difluoromethyl)-2-fluorophenyl)ethyl)amino)quinolin-6-yl)pyrrolidin-3-ol]: the GI50 in the assay on K562 cells was at most 100 nM. Besides, the values for the IC50 (in assay [1]; at SOS1/KRAS-G12D) were at most 150 nM and at most 10 nM, respectively.
As to `C[C@@H](Nc1ccnc2ccc(N3CC[C@H](O)C3)cc12)c1cccc(C(F)F)c1F` [Compound 43, (S)-1-(4-(((R)-1-(3-(difluoromethyl)-2-fluorophenyl)ethyl)amino)quinolin-6-yl)pyrrolidin-3-ol], in the assay on K562 cells, the GI50 was 100 to 500 nM. Also, the values for the IC50 (in assay [1]; at SOS1/KRAS-G12D) were 150 to 500 nM and at most 10 nM, respectively.
In the same order, the values of `CN[C@@H]1CCN(c2ccc3nccc(N[C@H](C)c4cccc(C(F)F)c4F)c3c2)C1` [Compound 44, N-((R)-1-(3-(difluoromethyl)-2-fluorophenyl)ethyl)-6-((R)-3-(methylamino)pyrrolidin-1-yl)quinolin-4-amine] are at most 100 nM, above 500 nM and at most 10 nM.
The like results for `Cc1c([C@@H](C)Nc2ccnc3ccc(N4CCn5c(C)nnc5C4)cc23)cccc1C(F)(F)F` [Compound 45, (R)-N-(1-(2-methyl-3-(trifluoromethyl)phenyl)ethyl)-6-(3-methyl-5,6-dihydro-[1,2,4]triazolo[4,3-a]pyrazin-7(8H)-yl)quinolin-4-amine] were, in that order, 100 to 500 nM, above 500 nM and 10 to 100 nM.
For the compound `Cc1c([C@@H](C)Nc2ccnc3ccc(N4CCN(C(=O)C(C)C)CC4)cc23)cccc1C(F)(F)F` [Compound 46, (R)-2-methyl-1-(4-(4-((1-(2-methyl-3-(trifluoromethyl)phenyl)ethyl)amino)quinolin-6-yl)piperazin-1-yl)propan-1-one], the concentration for 50% growth inhibition (GI50) with K562 cells was in the range of 100 to 500 nM. Moreover, the IC50 in assay [1] lay in the range of 150 to 500 nM; at SOS1/KRAS-G12D, 10 to 100 nM.
`COc1cc2nccc(N[C@H](C)c3cccc(C(F)(F)F)c3C)c2cc1N1CCN(C(=O)C2COC2)CC1` [Compound 47]: the GI50 in the assay on K562 cells is 100 to 500 nM. Further, the IC50 in assay [1] was above 500 nM; at SOS1/KRAS-G12D, 10 to 100 nM.
Consider `C[C@@H](Nc1ccnc2ccc(N3CCOCC3)cc12)c1cccc(C(F)F)c1F` [Compound 48, (R)-N-(1-(3-(difluoromethyl)-2-fluorophenyl)ethyl)-6-morpholinoquinolin-4-amine], for which the GI50 in the assay on K562 cells was at most 100 nM. The figures for the IC50 (in assay [1]; on SOS1/KRAS-G12D) were at most 150 nM and at most 10 nM, respectively.
